Experimental data taken from US20260015350A1, “AZAQUINAZOLINE PAN-KRAS INHIBITORS” (Mirati Therapeutics, Inc., priority 2022, published 2026).

Assays:
KRas^G12R = molecular target: T1, KRas^G12R (Homo sapiens, UniProt P01116, G12R); assay: KRas binding assay (TR-FRET tracer displacement), KRas G12R
T1 construct: Biotinylated KRas (corresponding to amino acids 1-169, produced at Accelegan Inc.); biotin (biotinylated); purchased Accelegan Inc

KRas^G12V = molecular target: T2, KRas^G12V (Homo sapiens, UniProt P01116, G12V); assay: KRas binding assay (TR-FRET tracer displacement), KRas G12V
T2 construct: Biotinylated KRas (corresponding to amino acids 1-169, produced at Accelegan Inc.); biotin (biotinylated); purchased Accelegan Inc

[1] = test system: KRas-mediated phosphorylation of ERK in AsPC-1 cells; assay: Inhibition of KRas-mediated phosphorylation of ERK (Cisbio HTRF pERK), AsPC-1 cells; type: cell-based; conditions: Homo sapiens, ASPC1, AsPC-1 cells; HTRF pERK
Procedure, shortened: (§1)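 Each compound was tested at 10 concentrations, threefold apart with 10 uM the highest, for 3 hrs on 6,000 seeded cells; final DMSO was 0.8% and Trametinib (0.2 uM) served as Min control. Lysed cells were analysed for pERK by HTRF.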

KRas^G12D = molecular target: T3, KRas^G12D (Homo sapiens, UniProt P01116, G12D); assay: KRas binding assay (TR-FRET tracer displacement), KRas G12D
T3 construct: Biotinylated KRas (corresponding to amino acids 1-169, produced at Accelegan Inc.); biotin (biotinylated); purchased Accelegan Inc

[2] = test system: KRas-mediated phosphorylation of ERK in H727 cells; assay: Inhibition of KRas-mediated phosphorylation of ERK (Cisbio HTRF pERK), H727 cells; type: cell-based; conditions: Homo sapiens, NCI-H727, H727 cells; HTRF pERK
Procedure, shortened: as §1

T1 sequence (P01116 1-169 isoform P01116-2 G12R): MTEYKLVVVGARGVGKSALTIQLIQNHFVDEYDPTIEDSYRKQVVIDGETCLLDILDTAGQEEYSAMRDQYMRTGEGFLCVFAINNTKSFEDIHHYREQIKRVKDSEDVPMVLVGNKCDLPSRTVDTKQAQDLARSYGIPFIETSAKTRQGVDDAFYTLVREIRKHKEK
T3 sequence (P01116 1-169 isoform P01116-2 G12D): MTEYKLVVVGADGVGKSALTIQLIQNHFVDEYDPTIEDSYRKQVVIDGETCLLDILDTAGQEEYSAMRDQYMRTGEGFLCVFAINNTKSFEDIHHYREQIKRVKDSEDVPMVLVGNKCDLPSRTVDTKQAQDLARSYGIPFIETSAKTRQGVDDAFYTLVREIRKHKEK
T2 sequence (P01116 1-169 isoform P01116-2 G12V): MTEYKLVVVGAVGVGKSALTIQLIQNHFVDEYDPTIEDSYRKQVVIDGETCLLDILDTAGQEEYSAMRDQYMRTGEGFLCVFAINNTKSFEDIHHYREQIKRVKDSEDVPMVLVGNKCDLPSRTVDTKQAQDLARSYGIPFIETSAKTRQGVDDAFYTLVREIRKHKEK

Structure (SMILES) | IC50 (KRas^G12R) | IC50 (KRas^G12V) | IC50 [1] | IC50 (KRas^G12D) | IC50 [2]
CCc1c(F)ccc2cc(O)cc(-c3ncc4c(N[C@@H]5C[C@@H](C)S(=O)(=O)[C@@H](C)C5)nc(OC[C@@]56CCCN5C[C@H](F)C6)nc4c3F)c12 [Example 630, (2R,4s,6S)-4-((7-(8-ethyl-7-fluoro-3-hydroxynaphthalen-1-yl)-8-fluoro-2-(((2R,7aS)-2-fluorohexahydro-1H-pyrrolizin-7a-yl)methoxy)pyrido[4,3-d]pyrimidin-4-yl)amino)-2,6-dimethyltetrahydro-2H-thiopyran 1,1-dioxide] | 34 nM | 93 nM | > 10000 nM | 796 nM | 4420 nM
CCc1c(F)ccc2cc(O)cc(-c3ncc4c(N5CCC(C)(C)SC(C)(C)C5)nc(OC[C@@]56CCCN5C[C@H](F)C6)nc4c3F)c12 [Example 626, 5-ethyl-6-fluoro-4-(8-fluoro-2-(((2R,7aS)-2-fluorohexahydro-1H-pyrrolizin-7a-yl)methoxy)-4-(2,2,7,7-tetramethyl-1,4-thiazepan-4-yl)pyrido[4,3-d]pyrimidin-7-yl)naphthalen-2-ol] | 23600 nM | 43000 nM | > 10000 nM | 98800 nM | > 10000 nM
CCc1c(F)ccc2cc(O)cc(-c3ncc4c(N5CCCn6nc(C(=O)N(C)C)cc6C5)nc(N5CC(N)C5)nc4c3F)c12 [Example 529, 5-(2-(3-aminoazetidin-1-yl)-7-(8-ethyl-7-fluoro-3-hydroxynaphthalen-1-yl)-8-fluoropyrido[4,3-d]pyrimidin-4-yl)-N,N-dimethyl-5,6,7,8-tetrahydro-4H-pyrazolo[1,5-a][1,4]diazepine-2-carboxamide] | 36 nM | 21 nM | > 10000 nM | 14 nM | > 10000 nM
CCc1c(F)ccc2cc(O)cc(-c3ncc4c(N5CCCn6nc(C(=O)N(C)CCO)cc6C5)nc(OC[C@@]56CCCN5C[C@H](F)C6)nc4c3F)c12 [Example 679, 5-(7-(8-ethyl-7-fluoro-3-hydroxynaphthalen-1-yl)-8-fluoro-2-(((2R,7aS)-2-fluorohexahydro-1H-pyrrolizin-7a-yl)methoxy)pyrido[4,3-d]pyrimidin-4-yl)-N-(2-hydroxyethyl)-N-methyl-5,6,7,8-tetrahydro-4H-pyrazolo[1,5-a][1,4]diazepine-2-carboxamide] | 190 nM | 105 nM | > 10000 nM | 124 nM | 9490 nM
CCc1c(F)ccc2cc(O)cc(-c3ncc4c(N5CCC6(CC5)OCCC6C#N)nc(OC[C@@]56CCCN5C[C@H](F)C6)nc4c3F)c12 (stereo partly drawn) [Example 612, 8-(7-(8-ethyl-7-fluoro-3-hydroxynaphthalen-1-yl)-8-fluoro-2-(((2R,7aS)-2-fluorohexahydro-1H-pyrrolizin-7a-yl)methoxy)pyrido[4,3-d]pyrimidin-4-yl)-1-oxa-8-azaspiro[4.5]decane-4-carbonitrile] | 911 nM | 474 nM | > 10000 nM | 4250 nM | > 10000 nM
CCc1c(F)ccc2cc(O)cc(-c3ncc4c(N5CCC(N6C(=O)OC7CN(C(C)=O)CC76)CC5)nc(OC[C@@]56CCCN5C[C@H](F)C6)nc4c3F)c12 (stereo partly drawn) [Example 689, 5-acetyl-3-(1-(7-(8-ethyl-7-fluoro-3-hydroxynaphthalen-1-yl)-8-fluoro-2-(((2R,7aS)-2-fluorotetrahydro-1H-pyrrolizin-7a(5H)-yl)methoxy)pyrido[4,3-d]pyrimidin-4-yl)piperidin-4-yl)hexahydro-2H-pyrrolo[3,4-d]oxazol-2-one] | 349 nM | 98 nM | > 10000 nM | 1650 nM | > 10000 nM
CCc1c(F)ccc2cc(O)cc(-c3ncc4c(N5C[C@@H]6[C@@H](CC(N)=O)NC(=O)[C@@H]6C5)nc(OC[C@@]56CCCN5C[C@H](F)C6)nc4c3F)c12 [Example 641, 2-((1R,3aS,6aR)-5-(7-(8-ethyl-7-fluoro-3-hydroxynaphthalen-1-yl)-8-fluoro-2-(((2R,7aS)-2-fluorotetrahydro-1H-pyrrolizin-7a(5H)-yl)methoxy)pyrido[4,3-d]pyrimidin-4-yl)-3-oxooctahydropyrrolo[3,4-c]pyrrol-1-yl)acetamide] | 540 nM | 632 nM | > 10000 nM | 3120 nM | > 10000 nM
CCc1c(F)ccc2cc(O)cc(-c3ncc4c(N5CCC6(CNC(=O)OC6)C5)nc(OC[C@@]56CCCN5C[C@H](F)C6)nc4c3F)c12 (stereo partly drawn) [Example 598, 2-(7-(8-ethyl-7-fluoro-3-hydroxynaphthalen-1-yl)-8-fluoro-2-(((2R,7aS)-2-fluorotetrahydro-1H-pyrrolizin-7a(5H)-yl)methoxy)pyrido[4,3-d]pyrimidin-4-yl)-7-oxa-2,9-diazaspiro[4.5]decan-8-one] | 66 nM | 84 nM | > 10000 nM | 820 nM | > 10000 nM
CCc1c(F)ccc2cc(O)cc(-c3ncc4c(N5CC(C)(O)C6CC5C6)nc(OC[C@@]56CCCN5C[C@H](F)C6)nc4c3F)c12 (stereo partly drawn) [Example 893, 2-(7-(8-ethyl-7-fluoro-3-hydroxynaphthalen-1-yl)-8-fluoro-2-(((2R,7aS)-2-fluorotetrahydro-1H-pyrrolizin-7a(5H)-yl)methoxy)pyrido[4,3-d]pyrimidin-4-yl)-4-methyl-2-azabicyclo[3.1.1]heptan-4-ol] | 40 nM | 43 nM | 2100 nM | 92 nM | 3020 nM
CCc1c(F)ccc2cc(O)cc(-c3ncc4c(N5CCOC[C@@](C)(COC)C5)nc(OC[C@@]56CCCN5C[C@H](F)C6)nc4c3F)c12 [Example 602, 5-ethyl-6-fluoro-4-(8-fluoro-2-(((2R,7aS)-2-fluorotetrahydro-1H-pyrrolizin-7a(5H)-yl)methoxy)-4-((R)-6-(methoxymethyl)-6-methyl-1,4-oxazepan-4-yl)pyrido[4,3-d]pyrimidin-7-yl)naphthalen-2-ol] | 161 nM | 243 nM | 5460 nM | 484 nM | 3870 nM
CCc1c(F)ccc2cc(O)cc(-c3ncc4c(N5CC6(CO)CC(C7CCCC7)(C5)C6)nc(OC[C@@]56CCCN5C[C@H](F)C6)nc4c3F)c12 [Example 648, 4-(4-(1-cyclopentyl-5-(hydroxymethyl)-3-azabicyclo[3.1.1]heptan-3-yl)-8-fluoro-2-(((2R,7aS)-2-fluorohexahydro-1H-pyrrolizin-7a-yl)methoxy)pyrido[4,3-d]pyrimidin-7-yl)-5-ethyl-6-fluoronaphthalen-2-ol] | 7370 nM | 6080 nM | > 10000 nM | 9120 nM | > 10000 nM
CCc1c(F)ccc2cc(O)cc(-c3ncc4c(N5CCCC6(C5)NC(=O)NC6=O)nc(N5CC(N)C5)nc4c3F)c12 (centres unmarked) [Example 528, 7-(2-(3-aminoazetidin-1-yl)-7-(8-ethyl-7-fluoro-3-hydroxynaphthalen-1-yl)-8-fluoropyrido[4,3-d]pyrimidin-4-yl)-1,3,7-triazaspiro[4.5]decane-2,4-dione] | 3 nM | 3 nM | > 10000 nM | 8 nM | > 10000 nM
CCc1c(F)ccc2cc(O)cc(-c3ncc4c(N5CCC[C@@](C)(O)C5)nc(OCC5(CN(C)C)CC5CO)nc4c3F)c12 (stereo partly drawn) [Example 813, (3R)-1-(2-((1-((dimethylamino)methyl)-2-(hydroxymethyl)cyclopropyl)methoxy)-7-(8-ethyl-7-fluoro-3-hydroxynaphthalen-1-yl)-8-fluoropyrido[4,3-d]pyrimidin-4-yl)-3-methylpiperidin-3-ol] | 4 nM | < 2 nM | 1080 nM | < 2 nM | 2550 nM
CCc1c(F)ccc2cc(O)cc(-c3ncc4c(NCc5cc(C(=O)N(C)C)nn5[C@H]5C[C@@H](O)C5)nc(OC[C@@]56CCCN5C[C@H](F)C6)nc4c3F)c12 [Example 678, 5-(((7-(8-ethyl-7-fluoro-3-hydroxynaphthalen-1-yl)-8-fluoro-2-(((2R,7aS)-2-fluorohexahydro-1H-pyrrolizin-7a-yl)methoxy)pyrido[4,3-d]pyrimidin-4-yl)amino)methyl)-1-(cis-3-hydroxycyclobutyl)-N,N-dimethyl-1H-pyrazole-3-carboxamide] | 16 nM | 11 nM | > 10000 nM | 89 nM | > 10000 nM
CCc1c(F)ccc2cc(O)cc(-c3ncc4c(N5CCC(n6cnnc6)C5)nc(OC[C@@]56CCCN5C[C@H](F)C6)nc4c3F)c12 (stereo partly drawn) [Example 564, 4-(4-(3-(4H-1,2,4-triazol-4-yl)pyrrolidin-1-yl)-8-fluoro-2-(((2R,7aS)-2-fluorotetrahydro-1H-pyrrolizin-7a(5H)-yl)methoxy)pyrido[4,3-d]pyrimidin-7-yl)-5-ethyl-6-fluoronaphthalen-2-ol] | 31 nM | 16 nM | > 10000 nM | 640 nM | > 10000 nM
CCc1c(F)ccc2cc(O)cc(-c3ncc4c(N5CC6CN(C7COC7)CC6C5)nc(OC[C@@]56CCCN5C[C@H](F)C6)nc4c3F)c12 (stereo partly drawn) [Example 621, 5-ethyl-6-fluoro-4-(8-fluoro-2-(((2R,7aS)-2-fluorohexahydro-1H-pyrrolizin-7a-yl)methoxy)-4-(5-(oxetan-3-yl)hexahydropyrrolo[3,4-c]pyrrol-2(1H)-yl)pyrido[4,3-d]pyrimidin-7-yl)naphthalen-2-ol] | 3490 nM | 1290 nM | > 10000 nM | 891 nM | > 10000 nM
